Assay results reported in PubChem BioAssay AID1053199 (The Scripps Research Institute Molecular Screening Center, 2014).
The source made the active and inactive calls.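 The calls were made as follows: active = inhibition at or above 50% when tested at 10 µM; inactive = inhibition below 50% at 10 µM.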

Biological target: Methionine--tRNA ligase, mitochondrial (Homo sapiens) (UniProt Q96GW9)
Experiment: inhibitors of human mitochondrial methionyl-tRNA synthetase – biochemical, radioactivity, round 3, selectivity assay for T. brucei MetRS inhibitor project, late-stage follow-up (AID 1053199)
Conditions: recombinant human mitochondrial MetRS, [3H]Met aminoacylation, stronger effect = higher value

Sequence of Methionine--tRNA ligase, mitochondrial (Homo sapiens) (Q96GW9 whole entry, looked up): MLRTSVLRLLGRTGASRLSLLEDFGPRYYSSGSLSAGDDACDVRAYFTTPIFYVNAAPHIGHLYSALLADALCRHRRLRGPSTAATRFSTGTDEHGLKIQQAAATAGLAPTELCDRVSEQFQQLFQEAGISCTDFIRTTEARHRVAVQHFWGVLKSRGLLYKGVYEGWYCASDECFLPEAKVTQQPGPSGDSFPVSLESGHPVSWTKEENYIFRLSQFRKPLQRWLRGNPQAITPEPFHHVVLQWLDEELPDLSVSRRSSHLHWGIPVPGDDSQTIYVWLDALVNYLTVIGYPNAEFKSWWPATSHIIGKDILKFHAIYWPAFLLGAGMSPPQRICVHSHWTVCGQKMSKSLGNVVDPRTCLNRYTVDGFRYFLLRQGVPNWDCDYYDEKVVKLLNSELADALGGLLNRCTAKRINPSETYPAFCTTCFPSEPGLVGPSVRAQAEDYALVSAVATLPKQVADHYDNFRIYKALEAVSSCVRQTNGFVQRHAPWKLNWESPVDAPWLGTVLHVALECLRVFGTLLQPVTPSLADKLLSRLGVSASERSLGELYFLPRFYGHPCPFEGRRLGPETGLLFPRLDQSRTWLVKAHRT

inhibition (at 10 µM) | inhibition (inhibition, at 1 µM) [%] | SMILES
7.56% (inactive) | -2.44 | CCN(CC)C(=O)C(=O)c1cn(CC(=O)Nc2cc(Oc3ccc(F)cc3)cc(C(F)(F)F)c2)c2ccccc12
-4.45% (inactive) | -5.27 | CCN(CC)C(=O)C(=O)c1cn(CC(=O)Nc2cc(Oc3ccccc3F)cc(C(F)(F)F)c2)c2ccccc12
0.91% (inactive) | 5.12 | O=C(Cc1ccc(Nc2nc3ccc(Br)cc3[nH]2)cc1)NCCc1cccs1
2.68% (inactive) | -2.31 | CCN(CC)C(=O)C(=O)c1cn(CCNc2cc(Oc3ccccc3)cc(C(F)(F)F)c2)c2ccccc12
6.34% (inactive) | -6.59 | CCN(CC)C(=O)C(=O)c1cn(CC(=O)Nc2cc(Oc3ccccc3OC)cc(C(F)(F)F)c2)c2ccccc12
0.1% (inactive) | -5.12 | CCN(CC)C(=O)C(=O)c1cn(CCNc2cccc(C(F)(F)F)c2)c2ccccc12
-11.2% (inactive) | -8.45 | CCN(CC)C(=O)Cc1cn(CC(=O)Nc2cccc(C(F)(F)F)c2)c2ccccc12
-1.74% (inactive) | -4.97 | CCN(CC)C(=O)C(=O)c1cn(CC(=O)Nc2cc(Oc3ccc(OC)cc3)cc(C(F)(F)F)c2)c2ccccc12
-8.53% (inactive) | -1.57 | O=C(Cn1cc(C(=O)C(=O)NCc2ccccc2)c2ccccc21)Nc1cc(Oc2ccccc2)cc(C(F)(F)F)c1
6.59% (inactive) | 2.59 | Nc1c(Cl)ncnc1Nc1ccc(C(=O)O)cc1
